By EC50 is commonly meant the concentration that produces a half-maximal response.

Calls of active or inactive are those of the source.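 The calls were made as follows: active = growth-inhibition EC50 no more than tenfold above the top tested dose; inconclusive = flat fit between 30% and 70% inhibition, or unreliable fit; inactive = EC50 more than tenfold above the top tested dose.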

The subject of the test is E. coli NEB5alpha growth, BacTiter-Glo luminescence, 4 h. Kind of test: antibacterial activity against E. coli NEB5alpha – luminescence, counter-screen for MEX-5/POS-1 RNA-binding inhibitor project, dose response (AID 1959).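 Also: pUC19-transformed ampicillin-resistant cells grown in LB with ampicillin.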 On the technique in general: A counterscreen serves to expose hits that act by an unwanted route or on another target.
For `ON=C1/C(=N\O)CC2(C/C1=N/O)OCCO2`, the EC50 is > 11 µM (inactive). The value for `C=CCn1cc(C=C2C(=O)NC(=O)NC2=O)c2ccccc21` was > 11 µM (inactive). The value for `CC1(C)CC(=O)C2=C(C1)OC(N)=C(C#N)C2c1ccccc1OC(=O)N1CCOCC1` (configuration not stated) was > 11 µM (inactive). The value for `CCn1c(C)cc(=S)c2ccccc21` was > 11 µM (inactive); that for `COc1ccc(OC)c(/C=c2\sc3nc(-c4cccs4)nn3c2=O)c1` was > 11 µM (inactive). Take `Cc1ccc(N2C(=O)c3cccc4c(N5CCN(C)CC5)ccc(c34)C2=O)c2cccnc12`: the EC50 is > 11 µM (inactive).

With `O=c1[nH]c(CSc2ncccn2)nc2c1cnn2-c1ccccc1`, the EC50 was > 11 µM (inactive). The value for `CSc1nsc2nc(=O)c(/C=C3\C=Nc4ccccc43)c(N)n12` was > 11 µM (inactive); that for `O=C1c2cccc3c(O)ccc(c23)C(=O)N1c1ccc(Cl)cc1` was > 11 µM (inactive). With `O=C1/C(=N\S(=O)(=O)c2cccs2)C([n+]2ccc(CCCc3ccccc3)cc2)=C([O-])c2ccccc21` the figure was > 11 µM (inactive).

Regarding `CCN(CC)c1ccc(/C=C2\C(=O)NC(=S)N(C)C2=O)o1`, the EC50 is > 11 µM (inactive). Consider `CN1C(=O)C(=Cc2ccc(SC3CCCCC3)o2)C(=O)N(C)C1=O`, for which the EC50 was > 11 µM (inactive).

In the case of `Cc1c(/C=N/Nc2ccc(F)cc2)c(O)n(C)c(=O)c1C#N`, the EC50 is > 11 µM (inactive). With `O=C1CSC(=S)N1N1C(=O)c2cccc([N+](=O)[O-])c2C1=O` the figure was > 11 µM (inactive); with `O=C(N/N=C/c1ccc(O)c(O)c1)N/N=C/c1ccc(O)c(O)c1`, > 11 µM (inactive). The value for `Cc1cc(/C=C(/C#N)c2nc3ccccc3[nH]2)c(C)n1-c1ccccc1C(=O)O` was > 11 µM (inactive). The value for `O=c1oc2ccccc2cc1-c1nc(-c2cccs2)cs1` was > 11 µM (inactive); that for `O=C(O)c1ccccc1-n1c(-c2ccccc2)cc2c1CCCC2=O` was > 11 µM (inactive); that for `CN1CCc2cc(O)cc3c2[C@H]1Cc1ccc(O)c(O)c1-3` was > 11 µM (inactive). For the molecule `COc1ccc(C2c3cc(OC)c(OC)cc3CCN2S(C)(=O)=O)cc1OC` (configuration not stated), the EC50 is > 11 µM (inactive). `Cc1nc(S/C(=C\c2ccc(-c3ccc(C(=O)O)c(Cl)c3)o2)C(=O)O)n[nH]1`: the EC50 is > 11 µM (inactive). With `O=S(=O)(Nc1ccc(O)c2ccccc12)c1ccc(Br)cc1` the figure was > 11 µM (inactive).

Consider `COC(=O)c1ccc(C)c(-n2c(C)cc(C=O)c2C)c1`, for which the EC50 is > 11 µM (inactive). With `N#C/C(=C/c1ccc(CNS(=O)(=O)c2ccccc2)o1)C(=O)NCc1ccccc1` the figure was > 11 µM (inactive); with `O=c1[nH][nH]c2cc(=O)n(-c3ccc(Cl)cc3)nc12`, > 11 µM (inactive); with `COc1ccc(C2C(C(=O)c3ccco3)=C(O)C(=O)N2c2nnc(C)s2)cc1` (configuration not stated), > 11 µM (inactive).

On to `C=CCN1C(=O)/C(=C2/Sc3ccc(OC)cc3N2CC)SC1=S`, for which the EC50 is > 11 µM (inactive).

Regarding `O=C1C=C(O)c2c(O)cc(O)c(O)c2C1=O`, the EC50 was > 11 µM (inactive). As to `Cn1c(O)c(/C=C2\C=c3ccccc3=NC2=O)c(=O)n(C)c1=O`, the EC50 was > 11 µM (inactive).

`CCCCOC(=O)c1ccc(N=Nc2c(C)c(C#N)c(O)[nH]c2=O)cc1`: the EC50 is > 11 µM (inactive). With `Cc1cc(C(F)(F)F)c2c(N)c(C(=O)Nc3cc(C)on3)sc2n1`, the EC50 is > 11 µM (inactive). In the case of `CCOc1cc(/C=C/c2cccc[n+]2C)ccc1OCC(=O)Nc1ccc(C)cc1`, the EC50 was > 11 µM (inactive).

For `N#CC(C#N)=Cc1cccn1-c1ccc(C(=O)O)cc1`, the EC50 was > 11 µM (inactive). The value for `CCOC(=O)C1Nc2ccc(C(F)(F)F)cc2C2C=CCC12` (configuration not stated) was > 11 µM (inactive); that for `Cc1ccc(S(=O)(=O)N2CCOCC2)cc1C(=O)Nc1ccc(S(=O)(=O)Nc2nccs2)cc1` was > 11 µM (inactive); that for `COc1cc2[nH]c(C(=O)NN)c(N)c2cc1OC` was > 11 µM (inactive).

`Cc1sc(/C=C2\C(=O)ON=C2c2ccccc2)cc1Br`: the EC50 is > 11 µM (inactive). For the molecule `Cc1ccc(C)c(N(C)C(=O)c2coc(=O)c3ccccc23)c1`, the EC50 was > 11 µM (inactive).

As for `COc1cc(OC)c(OC)cc1/C=C1\Oc2cc(OS(C)(=O)=O)ccc2C1=O`, the EC50 is > 11 µM (inactive). The value for `COc1ccc2c(c1)c1nc3ccccc3nc1n2CCn1c(=O)oc2ccccc21` was > 11 µM (inactive). The value for `CC(=O)Nc1ccc(/C=C/C(=O)c2ccc3c(c2)OCCO3)cc1` was > 11 µM (inactive); that for `O=C/C(=C\Nc1ccccn1)c1nc2ccccc2o1` was > 11 µM (inactive). With `CCCCC1=CC2=C(c3ccco3)C(=O)C(C)(OC(=O)c3ccc(OC)cc3)C(=O)C2=CN1CCN1CCOCC1` (configuration not stated), the EC50 is > 11 µM (inactive). With `O=C(NC1CC1)C1Nc2ccc(OC(F)(F)F)cc2C2C=CCC12` (configuration not stated) the figure was > 11 µM (inactive).

Turning to `CCOC(=O)c1ccc(-n2c(C)ccc2C)cc1`, the EC50 was > 11 µM (inactive). As for `CCNc1nn2ccccc2c1/C=C(\C#N)C(=O)OCC`, the EC50 was > 11 µM (inactive). With `Cc1nc2ccccc2c(=O)n1/N=C/c1ccc(O)c(O)c1O` the figure was > 11 µM (inactive). With `COC(=O)c1cc(-n2cccc2)ccc1N1CCOCC1` the figure was > 11 µM (inactive). With `CC(=O)c1cc(NC(=O)c2ccc(Cl)cc2)c(=O)oc1/C=C/N(C)C` the figure was > 11 µM (inactive); with `COc1ccc2c(c1)c1nc3ccccc3nc1n2Cc1ccc(OC)c(OC)c1`, > 11 µM (inactive).

On to `CCCCN1C(=O)/C(=C/C=C2\Oc3ccccc3N2CC)SC1=S`, for which the EC50 was > 11 µM (inactive). With `CC(=O)Nc1ccc(N/C=C/C(=O)c2ccc(C)o2)cc1`, the EC50 was > 11 µM (inactive). With `CCOC(=O)c1c(NC(=O)CC2Nc3ccccc3NC2=O)sc(C)c1C` (configuration not stated) the figure was > 11 µM (inactive). With `O=C1c2cccc3c(N4CCCCC4)ccc(c23)C(=O)N1CCO` the figure was > 11 µM (inactive); with `CCCCOc1c(Br)cc(/C=N/O)cc1OCC`, > 11 µM (inactive); with `Cc1ccccc1-c1ccc(/C=C2/SC(N3CCOCC3)=NC2=O)o1`, > 11 µM (inactive). With `CC(C)CNC(=O)C1Nc2ccc(OC(F)(F)F)cc2C2C=CCC12` (configuration not stated) the figure was > 11 µM (inactive); with `CCc1c(C(=O)NNC(=S)Nc2ccc(S(=O)(=O)Nc3ncccn3)cc2)csc1C`, > 11 µM (inactive). On to `CCOCCCn1c(=NC(=O)c2ccc(OC)c(OC)c2)c(C#N)cc2c(=O)n3cccc(C)c3nc21`, for which the EC50 is > 11 µM (inactive). With `O=C1N=C(N2C=CC(=C3C=CNC=C3)C=C2)/C(=C/N=NC(=O)c2ccccc2O)S1` the figure was > 11 µM (inactive); with `CC1C2C(C)N(C)C(=O)N(C)C2N(C)C(=O)N1C` (configuration not stated), > 11 µM (inactive).

Consider `COc1ccc(N/C(=C(/C(Cl)=C(Cl)Cl)[N+](=O)[O-])n2nnc3ccccc32)cc1`, for which the EC50 was > 11 µM (inactive).

The record behind these values is PubChem BioAssay AID1959 (Broad Institute, 2009).
